The subject of one assay is U373. Put plainly: MTT colorimetric assay, overall cell growth. Conditions: Homo sapiens, U373 MG; U373 cells, 72 hours of incubation; read-out: IC50 (µM) In Vitro Growth Inhibitory Concentrations (MTT Colorimetric Assay) U373. In kind it is cell-based. For orientation: Tetrazolium assays rely on reduction of a dye to a coloured formazan, in cell work by metabolically active cells.

The test system of the next assay is Hs683. The experiment in a line: MTT colorimetric assay, overall cell growth. In kind it is cell-based. Particulars: Homo sapiens, Hs 683; Hs683 cells, 72 hours of incubation; read-out: IC50 (µM) In Vitro Growth Inhibitory Concentrations (MTT Colorimetric Assay) Hs683.
Assay [1] deals with three Human Glioma Cell Lines. The experiment in a line: MTT colorimetric assay, mean over the three glioma cell lines. In kind it is cell-based. Conditions: mean of the three human glioma cell lines, 72h (Table 2); read-out: Mean IC50 MTT values ± SEM (µM) Glioma - Human Brain cancer cells (I - 72h). As for the experimental part: (§1) Table 2: Bioselectivity determined by dividing the IC50 obtained with glioma cell lines by the IC50 obtained with normal astrocytes. Bioselectivity was determined only for those compounds whose mean + SEM values on the three human glioma cell lines were ≤ 20 µM.

In assay [2] the test system is Astrocytes - Mouse normal brain cells. Put plainly: MTT colorimetric assay on normal astrocytes (bioselectivity). In kind it is cell-based. As for the experimental part:
as §1

Assay [3] concerns human U373 glioma cell line. The experiment in a line: Quantitative videomicroscopy (computer-assisted phase-contrast microscopy). In kind it is cell-based. Conditions: U373 cells treated at the IC50 concentration from MTT, filmed for 72h; cytostatic versus cytotoxic effects. The source says:
In addition, the inventors could establish that the compounds of the invention act through a non-apoptosis-related mechanism thanks to a unique experimental approach used by the inventors, i.e. computer-assisted phase-contrast microscopy (quantitative videomicroscopy), making them good candidates as anti-cancer drugs for treating apoptosis-resistant tumor or cancer cells and for overcoming problems linked to the known anti-cancer drugs.
As the MTT test is based on the mitochondria functions, we also investigated the effects of the compounds according to the invention on cell proliferation, migration and morphology by means of a cellular imaging approach (Debeir et al., Cytometry 60:29-40, 2004; Debeir et al., IEEE Trans Med Imaging 24:697-711, 2005) in the human U373 glioma cell line, which is apoptosis-resistant but autophagy-sensitive (Lefranc F et al., Neurosurgery 2008).
Cellular imaging relied on the use of computer-assisted phase-contrast microscopy making possible to film the behaviour of living cells in culture dishes for several days.
Cells were seeded in a 25-cm^2 flask at a low density, treated or not with the compounds of the invention (at their IC50 concentration determined previously by MTT tests) and filmed thereafter for a period of 72h. The experiment was conducted in triplicate.
The behaviour of the cells, in terms of morphology, growth and death were thus investigated. The effect on the overall growth was measured by counting the number of cells on the first (0h) and the last image (72h) of each film. The global growth ratio (GGR) was then deduced by dividing the number of cells on the last image by the number of cells on the first image. The ratio GGRtreated cells / GGRcontrol cells, was further calculated thereby obtaining a value that describes the effect of compounds of the present invention on the overall cell growth.
The methodology is fully described and validated in Debeir et al., 2008, Exp Cell Res 314:2985-2998 and Mathieu et al., 2009, J Cell Mol Med, Feb 20, 2009.
Thanks to the quantitative videomicroscopy (QVM) approach, we classified the compounds into 4 distinctive classes on the basis of their cytostatic versus cytotoxic effects (Table 3). • Class I: actually cytostatic for 3 days (< 10 % of cell death at the 3rd day) • Class II: cytostatic but becomes cytotoxic with < 10% cell death on the 2nd day and > 20% of cell death on the 3rd day • Class III: cytostatic but rapidly becomes cytotoxic with < 10% cell death on the 1st day, > 20% of cell death on the 2nd day and > 50% of cell death on the 3rd day • Class IV: cytotoxic (> 50% of cell death on the first day)
In Fig. 1a, compounds of example 14 (5 µM), example 19 (20 µM) and example 23 (5 µM) belong to QVM Class I because they display cytostatic effects on human U373 GBM cells during the whole duration of the experiment. Cytostatic effects mean that < 10 % of cell death was recorded at the end of the experiment, i.e. at the end of the 3rd day. QVM analyses enable the global growth ratio (GGR) to be calculated in each experiment. The GGR index is obtained by dividing the number of cells in the last image by the number of cells in the first image of the experiment, knowing that 1080 images are taken during the 72 h-period of observation. The ratio GGR^treated cells / GGR^control cells was further calculated thereby obtaining a value that describes the effect of compounds on the overall cell growth. Thus, a GGR index of 0.2 means that they remain only 20% of treated cells compare to the control cells at the end of the experiment.

The subject of assay [4] is Astrocytes - Mouse normal brain cells. The experiment in a line: MTT colorimetric assay on normal astrocytes (bioselectivity). In kind it is cell-based. Conditions: Astrocyte, primocultures of astrocytes from newborn mice, 72h, read-out: Mean IC50 MTT values ± SEM (µM) Astrocytes - Mouse normal brain cells (II - 72h).
Another assay relates to T98G. The experiment in a line: MTT colorimetric assay, overall cell growth. Particulars: Homo sapiens, 72 h, read-out: IC50 (µM) In Vitro Growth Inhibitory Concentrations (MTT Colorimetric Assay) T98G.

Some results are limits rather than exact numbers.

Description for Hs683: The compounds and particularly dihydrobenzopyran, thiochroman, tetrahydroquinoleine and tetrahydronaphthalene derivatives of the invention were evaluated for their anti-proliferative effect (by means of the colorimetric MTT assay), in the following human glioblastoma cell-lines U373, T98G and Hs683 and in the mouse glioma cell line GL261. Normal brain cells (primocultures from newborn mice) were also used in order to determine the bioselectivity (B^N/C) of the compounds of interest, i.e. the ratio between the concentrations that inhibits 50% of the growth of brain cancer (C) cells (glioma cells) and the concentration that inhibits 50% of the growth of normal (N) brain cells (primocultures of astrocytes). The ideal situation to be reached is a bioselectivity of B^N/C > 10.
(§2) MTT tests were performed in order to rapidly, i.e. within 5 days, measure the effect of compounds of this invention on the overall cell growth. The test measured the number of metabolically active living cells that were able to transform the yellow product 3-(4,5-dimethylthiazol-2-yl)-2,5-diphenyl tetrazolium bromide (herein referred as MTT) into the blue product formazan dye by mitochondrial reduction. The amount of formazan obtained at the end of the experiment, measured by means of a spectrophotometer, is directly proportional to the number of living cells. Optical density determination thus enabled a quantitative measurement of the effect of the investigated compounds as compared to the control condition (untreated cells) and/or to other reference compounds.
(§3) Three human cancer cell lines were used in the following MTT tests.
(§4) To perform the assay, cells were allowed to grow in 96-well micro-wells with a flat bottom with an amount of 100 µl of cell suspension per well with 1,000 to 8,000 cells/well depending on the cell type used. Each cell line was seeded in its appropriate culture medium.
(§5) The detailed experimental procedure was the following: after a 24-hour period of incubation at 37°C, the culture medium was replaced by 100 µl of fresh medium in which the tested compound was previously dissolved, at the following molar concentrations: 10^-8 M, 5.10^-8 M, 10^-7 M, 5.10^-7 M, 10^-6 M, 5.10^-6 M, 10^-5 M, 5.10^-5 M and 10^-4 M. Each experiment was performed in sextuplicate (6 times).
After 72 hours of incubation at 37°C with (experimental conditions) or without (control condition) the compound to be tested, the medium was replaced by 100 µl MTT dissolved in RPMI (1640 without phenol red) at a concentration of 0.5 mg/ml. The micro-wells were subsequently incubated during 3 hours and a half at 37°C and centrifuged at 1300 rpm during 10 minutes. MTT was removed and formazan crystals formed were dissolved in 100 µl DMSO. The micro-wells were shaken for 5 minutes and read on a spectrophotometer at wavelengths of 570 nm (maximal formazan absorbance).
(§6) For each experimental condition, the mean optical density was calculated, allowing the determination of the percentage of remaining living cells in comparison to the control.
Description for T98G: The compounds and particularly dihydrobenzopyran, thiochroman, tetrahydroquinoleine and tetrahydronaphthalene derivatives of the invention were evaluated for their anti-proliferative effect (by means of the colorimetric MTT assay), in the following human glioblastoma cell-lines U373, T98G and Hs683 and in the mouse glioma cell line GL261. Normal brain cells (primocultures from newborn mice) were also used in order to determine the bioselectivity (B^N/C) of the compounds of interest, i.e. the ratio between the concentrations that inhibits 50% of the growth of brain cancer (C) cells (glioma cells) and the concentration that inhibits 50% of the growth of normal (N) brain cells (primocultures of astrocytes).
as §2, §3, §4, §5
The micro-wells were subsequently incubated during 3 hours and a half at 37°C and centrifuged at 1300 rpm during 10 minutes. MTT was removed and formazan crystals formed were dissolved in 100 µl DMSO. The micro-wells were shaken for 5 minutes and read on a spectrophotometer at wavelengths of 570 nm (maximal formazan absorbance).
as §6

As for `CC(C)(C)OC(=O)Nc1ccc2c(c1)C(NC(=O)Nc1cc(Cl)cc(Cl)c1)CC(C)(C)O2` (racemic) [Example 26, R/S-N-3,5-dichlorophenyl-N'-(6-tert-butoxycarbonylamino-3,4-dihydro-2,2-dimethyl-2H-1-benzopyran-4-yl)urea], the IC50 in the assay with U373 is 6 µM; with Hs683, 9 µM; in assay [1], 9 ± 2 µM; in assay [4] it was ~40 µM; in the assay with T98G it was 12 µM. Besides, in assay [2], the “Bioselectivity (I / II)” value is on record as < 5. Further, the “QVM Class” value in assay [3] was “II (Class II: cytostatic but becomes cytotoxic with < 10% cell death on the 2nd day and > 20% of cell death on the 3rd day)”.

In the case of `CC(C)(C)OC(=O)Nc1ccc2c(c1)C(NC(=O)Nc1ccc(C(F)(F)F)cc1)CC(C)(C)O2` (racemic) [Example 24, R/S-N-4-trifluoromethylphenyl-N'-(6-tert-butoxycarbonylamino-3,4-dihydro-2,2-dimethyl-2H-1-benzopyran-4-yl)urea], the IC50 with U373 was 10 µM; in the assay on Hs683, 11 µM; in assay [1] it was 12 ± 1 µM; in assay [4] it was > 120 µM; with T98G it was 15 µM. Also, the “Bioselectivity (I / II)” value in assay [2] is given as > 10. For the same molecule, the “QVM Class” value in assay [3] is given as “I (Class I: actually cytostatic for 3 days (< 10 % of cell death at the 3rd day))”.

Regarding `CC(C)(C)OC(=O)Nc1ccc2c(c1)C(NC(=O)Nc1cccc(C(F)(F)F)c1)CC(C)(C)O2` (racemic) [Example 25, R/S-N-3-trifluoromethylphenyl-N'-(6-tert-butoxycarbonylamino-3,4-dihydro-2,2-dimethyl-2H-1-benzopyran-4-yl)urea], the IC50 in the assay on U373 was 9 µM; in the assay with Hs683, 8 µM; in assay [1], 13 ± 4 µM; in assay [4], ~20 µM; in the assay on T98G, 21 µM. The “Bioselectivity (I / II)” value in assay [2] is recorded as < 2. For the same molecule, in assay [3], the “QVM Class” value was “II (Class II: cytostatic but becomes cytotoxic with < 10% cell death on the 2nd day and > 20% of cell death on the 3rd day)”.

Regarding `CC(C)(C)OC(=O)Nc1ccc2c(c1)C(NC(=O)Nc1cccc(Cl)c1)CC(C)(C)O2` (racemic) [Example 16, R/S-N-3-chlorophenyl-N'-(6-tert-butoxycarbonylamino-3,4-dihydro-2,2-dimethyl-2H-1-benzopyran-4-yl)urea], the IC50 is 18 µM with U373; 12 µM in the assay with Hs683; 17 ± 3 µM in assay [1]; > 200 µM in assay [4]; 20 µM in the assay on T98G. Moreover, the “Bioselectivity (I / II)” value in assay [2] is recorded as >12. In addition, the “QVM Class” value in assay [3] was “III (Class III: cytostatic but rapidly becomes cytotoxic with < 10% cell death on the 1st day, > 20% of cell death on the 2nd day and > 50% of cell death on the 3rd day)”.

Turning to `CC(C)(C)OC(=O)Nc1ccc2c(c1)C(NC(=O)Nc1cccc(C#N)c1)CC(C)(C)O2` (racemic) [Example 14, R/S-N-3-cyanophenyl-N'-(6-tert-butoxycarbonylamino-3,4-dihydro-2,2-dimethyl-2H-1-benzopyran-4-yl)urea], the IC50 with U373 was 2 µM; in the assay on Hs683 it was 2 µM; in assay [1], 2 ± 1 µM; in assay [4], > 20 µM; in the assay with T98G it was 3 µM. In assay [2], the “Bioselectivity (I / II)” value was > 10. In addition, the “QVM Class” value in assay [3] is reported as “I (Class I: actually cytostatic for 3 days (< 10 % of cell death at the 3rd day))”.

With `CC(C)(C)OC(=O)Nc1ccc2c(c1)C(NC(=O)Nc1cc(C(F)(F)F)cc(C(F)(F)F)c1)CC(C)(C)O2` (racemic) [Example 29, R/S-N-3,5-di(trifluoromethyl)phenyl-N'-(6-tert-butoxycarbonylamino-3,4-dihydro-2,2-dimethyl-2H-1-benzopyran-4-yl)urea], the IC50 is 4 µM with U373; 3 µM in the assay on Hs683; 4 ± 1 µM in assay [1]; ~20 µM in assay [4]; 5 µM with T98G. For the same molecule, the “Bioselectivity (I / II)” value in assay [2] is recorded as “∼ 5”. For the same molecule, the “QVM Class” value in assay [3] is listed as “I (Class I: actually cytostatic for 3 days (< 10 % of cell death at the 3rd day))”.

Regarding `CC(C)(C)OC(=O)Nc1ccc2c(c1)C(NC(=O)Nc1cccc([N+](=O)[O-])c1)CC(C)(C)O2` (racemic) [Example 23, R/S-N-3-nitrophenyl-N'-(6-tert-butoxycarbonylamino-3,4-dihydro-2,2-dimethyl-2H-1-benzopyran-4-yl)urea], the IC50 in the assay on U373 was 1 µM; in the assay with Hs683 it was 16 µM; in assay [1] it was 8 ± 4 µM; in assay [4], < 40 µM; with T98G, 7 µM. In assay [2], the “Bioselectivity (I / II)” value is recorded as < 5. Besides, the “QVM Class” value in assay [3] is listed as “I (Class I: actually cytostatic for 3 days (< 10 % of cell death at the 3rd day))”.
